Test results as given in US20240145031A1, “Methods and devices for drug repositioning and drug repurposing as nuclear receptor modulators” (Precision Medicine Lab, priority 2022, published 2024).

Target: T1, glucocorticoid receptor recombinant human protein, ligand binding domain (LBD) (Homo sapiens, UniProt P04150)
T1 construct: purchased Thermo Fisher Scientific A15668
T1 sequence (P04150 524-758 limits assumed): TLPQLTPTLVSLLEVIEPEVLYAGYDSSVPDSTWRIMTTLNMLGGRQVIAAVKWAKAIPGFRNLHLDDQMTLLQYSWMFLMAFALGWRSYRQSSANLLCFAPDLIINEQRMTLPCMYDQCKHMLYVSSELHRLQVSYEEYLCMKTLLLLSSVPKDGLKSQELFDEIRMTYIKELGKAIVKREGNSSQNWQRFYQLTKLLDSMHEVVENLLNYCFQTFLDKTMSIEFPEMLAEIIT
Test: nuclear receptor cofactor recruitment peptide array (70 coregulator peptides), ligand induced cofactor peptide interaction profiling
Type: biochemical
Description: Interactions between the glucocorticoid receptor ligand binding domain and the selected drugs for repurposing and coregulator peptides were determined using the method as described by Zalachoras et al 2013^xxvii Each peptide array consisting of 70 coregulator peptides as described in table 1 were incubated with a reaction mixture of 1 nM purified glucocorticoid receptor recombinant human protein, ligand binding domain (LBD), (Thermo Fisher Scientific, cat #A15668), ALEXA488-conjugated anti-GST antibody and buffer F (PV4689, A-11131, and PV4547; Invitrogen). […] For ligand induced cofactor peptide interaction profiling the set of repurposing drugs were tested at a concentration of 0.05 mM compared to solvent (2% DMSO in water). Incubation was performed at 20° C. on the cofactor peptide array. Glucocorticoid receptor binding to each peptide on the array, reflected by fluorescent signal, was quantified by image analysis using R-based software (Precision Medicine Lab). The 70 coregulator peptides used represent a range of coregulator nuclear receptor-boxes known to interact with the glucocorticoid receptor and other nuclear receptors. The binding profiles were generated for glucocorticoid receptor-LBD treated with the repurposing drugs vs cortisol.
The R2 is calculated using the data for each of the 70 cofactor peptides using the same weight.
In this example a weight factor was applied on the log fold change data of example 1 to determine the similarities between the tested repositioning drugs versus cortisol using the coefficient of determination, R2, between the weighted log fold change data of the tested repurposing drug to the positive control, cortisol. […] In this example 14 cofactor peptides were used (table 3).

Dexamethasone [Drug 3]
binding to coregulator peptide no 22 NCOA1_1421_1444 compared to the negative control (NC), DMSO: increased binding
